According to PubChem BioAssay AID330 (DTP/NCI, 2004):
Several values for one entry are separate records, joined by “and”; a condition that tells them apart may be missing. Equal entries are not always repeated. Inconclusive results and toxic doses are left out. How the source made its calls: active means survival T/C of 150% or more; inactive means T/C below 125% in these data.

Tested on: P388 leukemia ip, CD2F1 mice, survival T/C
Test: NCI In Vivo Anticancer Drug Screen. Data for tumor model P388 Leukemia (intraperitoneal) in CD2F1 (CDF1) mice
Conditions: endpoint: median survival time, higher = longer survival
In short: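 Mice carrying the transplanted tumor received test compound or vehicle. Survival was recorded in each group, and the value is the treated-group measurement divided by that of the vehicle-treated control group.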

[1] = dose: 12.5 mg/kg/injection, schedule: Q01DX005 (ip), vehicle: saline with Tween-80
[2] = dose: 25.0 mg/kg/injection, schedule: Q01DX005 (ip), vehicle: saline with Tween-80
[3] = dose: 50.0 mg/kg/injection, schedule: Q01DX009 (ip), vehicle: saline with Tween-80
[4] = dose: 100.0 mg/kg/injection, schedule: Q01DX009 (ip), vehicle: saline with Tween-80
[5] = dose: 200.0 mg/kg/injection, schedule: Q01DX009 (ip), vehicle: saline with Tween-80
[6] = dose: 50.0 mg/kg/injection, schedule: Q01DX005 (ip), vehicle: saline with Tween-80
[7] = dose: 100.0 mg/kg/injection, schedule: Q01DX005 (ip), vehicle: saline with Tween-80
[8] = dose: 50.0 mg/kg/injection, schedule: Q01DX005 (ip), vehicle: Klucel (hydroxypropylcellulose) (HPC)
[9] = dose: 100.0 mg/kg/injection, schedule: Q01DX005 (ip), vehicle: Klucel (hydroxypropylcellulose) (HPC)
[10] = dose: 200.0 mg/kg/injection, schedule: Q01DX005 (ip), vehicle: Klucel (hydroxypropylcellulose) (HPC)
[11] = dose: 60.0 mg/kg/injection, schedule: Q01DX005 (ip), vehicle: saline with Tween-80
[12] = dose: 120.0 mg/kg/injection, schedule: Q01DX005 (ip), vehicle: saline with Tween-80
[13] = dose: 240.0 mg/kg/injection, schedule: Q01DX005 (ip), vehicle: saline with Tween-80
[14] = dose: 25.0 mg/kg/injection, schedule: Q01DX009 (ip), vehicle: saline
[15] = dose: 50.0 mg/kg/injection, schedule: Q01DX009 (ip), vehicle: saline
[16] = dose: 50.0 mg/kg/injection, schedule: Q01DX005 (ip), vehicle: saline
[17] = dose: 100.0 mg/kg/injection, schedule: Q01DX005 (ip), vehicle: saline
[18] = dose: 200.0 mg/kg/injection, schedule: Q01DX005 (ip), vehicle: saline
[19] = dose: 100.0 mg/kg/injection, schedule: Q01DX001 (ip), vehicle: Klucel (hydroxypropylcellulose) (HPC)
[20] = dose: 200.0 mg/kg/injection, schedule: Q01DX001 (ip), vehicle: Klucel (hydroxypropylcellulose) (HPC)
[21] = dose: 400.0 mg/kg/injection, schedule: Q01DX001 (ip), vehicle: Klucel (hydroxypropylcellulose) (HPC)

Measured: T/C

COc1cc([C@@H]2c3cc4c(cc3[C@H](OC(=O)CCC(=O)O)[C@H]3COC(=O)[C@H]23)OCO4)cc(OC)c1OC
inactive: dose: 6.25 mg/kg/injection, schedule: Q01DX005 (ip), vehicle: saline with Tween-80 106 % of control | [1] 122 % of control | [2] 113 % of control

Nc1[nH]c(=O)[nH]c(=O)c1N
inactive: [3] 100 % of control | [4] 100 % of control | [5] 100 % of control

CC(C)CC(=O)CC(C)(O)CCC(=O)c1ccoc1 (configuration not stated)
inactive: [2] 98 % of control | [6] 104 % of control | [7] 102 % of control

CCOC(=O)C1Cc2c([nH]c(=O)[nH]c2=O)OC1(C)c1ccccc1 (configuration not stated)
inactive: [8] 103 % of control | [9] 98 % of control | [10] 97 % of control

CC(C)c1cccc(C(C)C)c1N1C(=O)C(=O)C(c2nc3ccccc3s2)C(=O)C1=O
inactive: [11] 103 % of control | [12] 102 % of control | [13] 103 % of control

N=C(N)SCc1cccc(C(=O)O)c1
inactive: [8] 110 % of control | [9] 105 % of control | [10] 96 % of control

CS(=O)(=O)OCCCCCCCCCCCCCC1C=CCC1 (configuration not stated)
inactive: dose: 100.0 mg/kg/injection, schedule: Q04DX003 (ip), vehicle: saline 99 % of control | dose: 200.0 mg/kg/injection, schedule: Q04DX003 (ip), vehicle: saline 103 % of control | dose: 400.0 mg/kg/injection, schedule: Q04DX003 (ip), vehicle: saline 99 % of control

OCC[N+]12CN3CN(CN(C3)C1)C2
inactive: [14] 108 % of control | [15] 110 % of control | dose: 100.0 mg/kg/injection, schedule: Q01DX009 (ip), vehicle: saline 111 % of control | dose: 178.0 mg/kg/injection, schedule: Q01DX009 (ip), vehicle: saline 118 % of control | dose: 200.0 mg/kg/injection, schedule: Q01DX009 (ip), vehicle: saline 118 % of control | dose: 266.0 mg/kg/injection, schedule: Q01DX009 (ip), vehicle: saline 118 % of control

CC(CCC(=O)O)(c1ccc(OC(=O)Nc2ccccc2Cl)cc1)c1ccc(OC(=O)Nc2ccccc2Cl)cc1
inactive: [6] 118 % of control | [7] 102 % of control | dose: 200.0 mg/kg/injection, schedule: Q01DX005 (ip), vehicle: saline with Tween-80 109 % of control

OC(c1ccccc1)C1CCNCC1 (configuration not stated) (tested in a mixture with another compound)
inactive: [11] 105 % of control | [12] 96 % of control | [13] 99 % of control

CN(CCO)c1ncnc2c1ncn2C
inactive: [16] 99 % of control | [17] 108 % of control | [18] 100 % of control

CCCCCCCCCc1cc(=O)[nH]c(=O)[nH]1
inactive: [19] 96 % of control | [20] 96 % of control | [21] 94 % of control

COc1ccc(C2CC(=O)CC2c2ccc(OC)cc2)cc1 (configuration not stated)
inactive: dose: 50.0 mg/kg/injection, schedule: Q01DX001 (ip), vehicle: Klucel (hydroxypropylcellulose) (HPC) 99 % of control | [19] 100 % of control | [20] 100 % of control

COc1cc(C2C(C)=COc3cc4c(cc32)OCO4)cc(OC)c1OC (configuration not stated)
inactive: [11] 93 % of control | [12] 100 % of control | [13] 93 % of control

CCCCCCCCCCCCCCCCCCOCC(COP(=O)([O-])OCC[N+](C)(C)C)OC (configuration not stated)
inactive: dose: 3.12 mg/kg/injection, schedule: Q01DX009 (ip), vehicle: saline 103 % of control | dose: 6.25 mg/kg/injection, schedule: Q01DX009 (ip), vehicle: saline 109 % of control | [1] 109 % of control | dose: 12.5 mg/kg/injection, schedule: Q01DX009 (ip), vehicle: saline 107 % of control and 117 % of control | [14] 122 % of control and 124 % of control | [15] 88 % of control

CC(O)CNc1n[nH]c(=O)c2ccccc12 (configuration not stated)
inactive: [3] 101 % of control | [4] 104 % of control | [5] 94 % of control

CS(=O)(=O)c1ccccc1NN
inactive: dose: 50.0 mg/kg/injection, schedule: Q01DX009 (ip), vehicle: Klucel (hydroxypropylcellulose) (HPC) 111 % of control | dose: 100.0 mg/kg/injection, schedule: Q01DX009 (ip), vehicle: Klucel (hydroxypropylcellulose) (HPC) 105 % of control | dose: 200.0 mg/kg/injection, schedule: Q01DX009 (ip), vehicle: Klucel (hydroxypropylcellulose) (HPC) 100 % of control

Cc1ccc(S(=O)(=O)Nc2ccccc2N(CCN(CCN(c2ccccc2NS(=O)(=O)c2ccc(C)cc2)S(=O)(=O)c2ccc(C)cc2)S(=O)(=O)c2ccc(C)cc2)S(=O)(=O)c2ccc(C)cc2)cc1
inactive: [3] 90 % of control | [4] 100 % of control | [5] 90 % of control

Cc1ccc2c(c1)N=C(OCCCN(C)C)/C(=C/c1ccccc1)O2
inactive: dose: 50.0 mg/kg/injection, schedule: Q04DX002 (ip), vehicle: Klucel (hydroxypropylcellulose) (HPC) 105 % of control | dose: 100.0 mg/kg/injection, schedule: Q04DX002 (ip), vehicle: Klucel (hydroxypropylcellulose) (HPC) 99 % of control | dose: 200.0 mg/kg/injection, schedule: Q04DX002 (ip), vehicle: Klucel (hydroxypropylcellulose) (HPC) 101 % of control

ClCc1ccc(Oc2ccc(CCl)cc2)cc1
inactive: dose: 12.5 mg/kg/injection, schedule: Q01DX009 (ip), vehicle: Klucel (hydroxypropylcellulose) (HPC) 120 % of control

Cc1nn(-c2ccccc2)c2oc3ccc(Cl)cc3c(=O)c12
inactive: dose: 60.0 mg/kg/injection, schedule: Q01DX005 (ip), vehicle: saline 96 % of control | dose: 120.0 mg/kg/injection, schedule: Q01DX005 (ip), vehicle: saline 92 % of control

CN(C)CCC(=O)C(=Cc1ccccc1)C(=O)CCN(C)C
inactive: [16] 114 % of control | [17] 99 % of control | [18] 101 % of control

COc1c(C)cc(C)c(CO)c1-c1c(CO)c(C)cc(C)c1OC
inactive: [19] 99 % of control | [20] 101 % of control | [21] 99 % of control
